Laboratory results published in patent publication US20040242627A1, “2-Iminoimidazole derivatives (1)” (priority 2001, published 2004).
Counter-ions that a name gives are not always drawn.

Key:
PAR1 thrombin receptor = molecular target: T1, PAR1 thrombin receptor (Homo sapiens, UniProt P25116); test: Receptor binding assay (high affinity TRAP displacement, platelet membrane); settings: platelet membrane of healthy adult, [3H] high affinity TRAP, 37° C. 1 hour; read-out: RBA IC50
T1 construct: homogenized with a Dounce homogenizer, and then centrifuged at 40,000 g for 60 minutes to yield platelet membrane; from tissue; host or cells: platelet membrane prepared from the blood of a healthy adult donor
T1 sequence (P25116 22-425): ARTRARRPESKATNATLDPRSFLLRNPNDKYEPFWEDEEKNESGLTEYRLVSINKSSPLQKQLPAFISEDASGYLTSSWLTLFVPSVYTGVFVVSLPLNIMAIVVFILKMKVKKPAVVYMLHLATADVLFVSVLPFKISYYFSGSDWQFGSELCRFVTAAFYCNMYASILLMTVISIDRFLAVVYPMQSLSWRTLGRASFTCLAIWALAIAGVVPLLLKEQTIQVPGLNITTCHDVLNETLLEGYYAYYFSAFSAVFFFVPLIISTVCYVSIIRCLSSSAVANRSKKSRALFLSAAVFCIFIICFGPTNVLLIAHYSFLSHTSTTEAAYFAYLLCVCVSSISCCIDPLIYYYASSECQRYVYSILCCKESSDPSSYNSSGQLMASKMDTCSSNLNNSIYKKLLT
Procedure: Blood was sampled from a healthy adult who had taken no drugs for one week, and 3.8% citric acid (a ratio of 1:9 with respect to the blood) was added as an anticoagulant. The mixture was then centrifuged at 100 g for 10 minutes at room temperature to yield platelet rich plasma (PRP). The platelet precipitate obtained by centrifuging the PRP was homogenized with a Dounce homogenizer, and then centrifuged at 40,000 g for 60 minutes to yield platelet membrane. The platelet membrane was suspended in a solution prepared by adding DMSO (dimethyl sulfoxide) at 1% concentration to Buffer 1: a 50 mM Tris-HCl buffer containing 10 mM MgCl2 and 1 mM EGTA (ethylene glycol tetraacetic acid), and the suspension was stored at −80° C. Bovine albumin and DMSO were added to Buffer 1 at 0.1% and 20%, respectively, to make a preparation solution for the test compound. […] Next, 30 μl of liquid scintillator was added for measurement of the radioactivity of the plate using a Top Counter (Packard), the value of the radioactivity in the presence of the test compound minus non-specific binding portion was divided by the specific binding value (the value of the binding in the absence of the compound minus the non-specific binding portion) to determine the binding ratio, from which the IC50 value was calculated. […]

[1] = tested on: platelet rich plasma (PRP), thrombin-induced platelet aggregation; test: Inhibitory effects on platelet aggregation using platelet rich plasma (thrombin-induced); type: cell-based; settings: Homo sapiens, PRP of healthy adult, thrombin 0.5-1.5 units/ml, area under aggregation curve, read-out: Thr IC50
Procedure: [Inhibitory Effects on Platelet Aggregation using Platelet Rich Plasma]
Blood was sampled from a healthy adult who had taken no drugs for one week, and 3.8% citric acid (a ratio of 1:9 with respect to the blood) was added as an anticoagulant. The mixture was then centrifuged at 100 g for 10 minutes at room temperature to yield platelet rich plasma (PRP). The PRP-removed blood was further centrifuged at 1000 g for 10 minutes to yield platelet poor plasma (PPP). The number of platelet was counted using a multi-parameter automatic hemocyte counter (K4500, Sysmex), and the PRP was diluted to approximately 300,000/μl with the PPP. The platelet aggregation activity was determined in the following manner using an Aggregometer (MC Medical). […] After addition of thrombin, the aggregation reaction was examined for 6 minutes and the areas under the aggregation curves were compared to determine the inhibition ratio, from which the IC50 value was calculated.

CC(C)(C)c1cc(C(=O)Cn2c(=N)n(Cc3ccc(N)cc3)c3ccccc32)cc(C(C)(C)C)c1O [Example 40, 2-[3-(4-amino-benzyl)-2-imino-2,3-di-hydro-benzimida-zol-1-yl]-1-(3,5-di-tert-bu-tyl-4-hydroxy-phenyl)-ethanone dihydrochloride]
IC50 (PAR1 thrombin receptor): 260 nM | IC50 [1]: 1300 nM
